Source: patent US9211278B2, “Composition containing arylnaphthalene lignan derivative for preventing and/or treating dementia” (KOREA INSTITUTE OF SCIENCE AND TECHNOLOGY, priority 2012, dated 2015)

Tests used:
O-glycosylated maAPP = assay: APP O-glycosylation, O-glycosylation antibody then APP Western blotting; format: cell-based, human; conditions: 1, 5, 10 uM, 4 hrs
Procedure: According to the same method as above, HeLa cell line was treated with 1, 5, 10 uM of Justicidin A for 4 hrs. Then, the 5 ul of O-glycosylation antibody (#MMS-248R, Covance) was added to 500 ug of the separated plasma membrane protein, and performed by electrophoresis and the western blotting using the APP antibody (1:2000 diluted, A8717, Sigma).

PC12 cell = assay: Cell viability assay, Cell counting kit-8; format: cell-based; conditions: 125 nM to 1000 nM, 24 hrs
Procedure: Firstly, cell viability assay was performed for identifying whether Justicidin A had toxicity to normal brain cell line. Cell viability assay performed using Cell counting kit-8 (CCK-8, WST-8, Kamimashikigun, Kumamoto, Japan). More particularly, 1.5×10^4 cells of PC12 (Cell No. RCB0009, RIKEN BRC Cell Bank, Tsukuba, Ibaraki, Japan) were seeded to each well of 96-well plate, and incubated for 24 hrs. Then various concentrations of Justicidin A were treated for 24 hrs, and measured by Cell counting kit-8.

[1] = test system: alpha-secretase product (sAPPα); assay: Alpha-secretase product (sAPPα) production, Western blotting; format: cell-based, human; conditions: 8 hours, concentrations of FIG. 5
Procedure: The test result confirmed that Justicidin A (C1) obtained in Example 2 and 5-methoxyJusticidin A increased alpha-secretase product (sAPPα). Specifically, the produced amount of sAPPα was measured by treating the cultured cell line (the HeLa cell line transfected with the amyloid precursor protein (APP) driven from human) with Justicidin A (S62-C1) or 5-methoxyJusticitdin A (S62-C2) at a concentration of FIG. 5, culturing it for 8 hours, and measuring the produced amount of sAPPα according to the Western blotting. The negative control was the group with no treatment of Justicidin A or 5-methoxyJusticidin A.

## COc1cc2c(OC)c3c(c(-c4ccc5c(c4)OCO5)c2cc1OC)C(=O)OC3 [Justicidin A]
O-glycosylated maAPP
  O-glycosylated maAPP: the O-glycosylated maAPP was increased
PC12 cell
  toxicity to PC12 cell: has no toxicity to PC12 cell
[1]
  formation of alpha-secretase product (sAPPα): activated the formation of alpha-secretase product (sAPPα)
